pIC50: −log10 of the molar value. Read-outs that look alike come from different tables or passages of the source.
Columns and labels:
γ-secretase [1] = assay: γ-Secretase assay, compound added to solubilized γ-secretase preparations; assay type: biochemical; conditions: control inhibitors; DAPT at 2 μM
Method: We implemented a an assay allowing de novo Aβ generation in vitro, using cell membranes as the source of γ-secretase. Preparation of solubilized γ-secretase fractions was performed essentially as described previously (Li, Y. M., Lai, M. T., Xu, M., Huang, Q., DiMuzio-Mower, J., Sardana, M. K., Shi, X. P., Yin, K. C., Shafer, J. A., and Gardell, S. J. (2000) Proc. Natl. Acad. Sci. U.S.A. 97, 6138-6143) with the above modifications. All incubations were performed in the presence of Complete Protease Inhibitor Cocktail. Confluent plates swAPP-HEK293 cells were lysed in 1 ml of ice-cold CelLytic-M (Sigma) and incubated 15 minutes at 4° C. on a shaker. Cell debris and nuclei were removed by centrifugation at 1000×g for 15 min at 4° C. For membrane isolation, the supernatant solutions were centrifuged at 20,000×g for 1 hour at 4° C. After centrifugation, the ensuing pellets were resuspended in 100 μl activity buffer (150 mM Na Citrate, pH 6.4)/cells plate and were defined as solubilized γ-secretase, as previously shown by Pinnix et al. (2001). Solubilized γ-secretase activity was induced at 37° C. for 2 h with or without the indicated treatments and Aβ 40 generated de novo was quantified by ELISA. Control experiments used the internally quenched fluorogenic γ-secretase substrate NMA-[…](DNP)-DRDRDR-NH2 (λex=355 nm; λem=440 nm) from Calbiochem, which contains the C-terminal β-APP amino acid sequence that is cleaved by γ-secretase and the γ-secretase inhibitor N—[N-(3,5-Difluorophenacetyl-L-alanyl)]-S-phenylglycine t-Butyl Ester (DAPT, Calbiochem).
To test this hypothesis, we used an established γ-secretase assay allowing de novo Aβ generation in vitro, using cell membranes as the source of γ-secretase. Solubilized γ-secretase fractions are activated in a γ-secretase buffer (see experimental procedures) and activity is monitored following either the cleavage of an internally quenched fluorogenic γ-secretase substrate, or endogenous C99 itself. The well characterized cell permeable γ-secretase inhibitor DAPT (Lanzn, T. A., Himesn, C. S., Pallanten, G., Adamsn, L., Yamazakin, S., Amoren, B., and Merchantn, K. M. (2003) J. Pharmacol. Exp. Ther. 305, 864-871) is included as control. C99 cleavage by γ-secretase was measured by de novo Aβ 40 generation. De novo Aβ 40 production increased with time and was optimal at 37° C. (FIG. 4 B). […] When temperature decreased, Aβ 40 generation decreased in parallel and was abolished at 4° C., in accordance with an enzymatic processing. […] (data not shown).

[2] = system: Notch-1 (NotchΔE) cleavage; assay: NotchΔE transfection and Notch-1 cleavage assay in Hela cells; conditions: Hela cells overexpressing NotchΔE, up to 16 hours; DAPT 2 μM
BACE1 = target: T1, BACE1 (Homo sapiens, UniProt P56817); assay: Cellular BACE activity, HEK293 cells stably expressing BACE1; assay type: cell-based; conditions: cells incubated 24 hours with compound 38 at 2, 10 or 20 μM
T1 construct: expressed in transfected cells; host or cells: HEK293
T1 sequence (P56817 46-501): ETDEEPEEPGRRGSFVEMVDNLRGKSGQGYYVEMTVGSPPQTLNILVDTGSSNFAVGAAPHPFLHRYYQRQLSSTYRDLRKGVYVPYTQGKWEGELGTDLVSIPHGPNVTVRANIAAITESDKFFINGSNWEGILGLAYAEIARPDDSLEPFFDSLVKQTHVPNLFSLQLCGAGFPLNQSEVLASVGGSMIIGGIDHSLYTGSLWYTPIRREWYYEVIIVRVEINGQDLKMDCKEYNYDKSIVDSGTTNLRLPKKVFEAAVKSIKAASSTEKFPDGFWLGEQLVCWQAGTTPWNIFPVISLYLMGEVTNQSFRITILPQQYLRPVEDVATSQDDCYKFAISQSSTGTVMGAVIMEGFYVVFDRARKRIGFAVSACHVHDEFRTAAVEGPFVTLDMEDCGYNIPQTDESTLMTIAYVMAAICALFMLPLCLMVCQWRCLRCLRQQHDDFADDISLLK
Source text: (§1) The human BACE1 cDNA was generated by RT-PCR from human brain mRNA samples (Biocat, Germany) and cloned into pcDNA3 expression vector. Subsequently, a HEK293 cell line stably expressing BACE1 was generated and used as a source of BACE1. An in vitro assay was developed based on previous studies (Ermolieff, J., Loy, J. A., Koelsch, G., and Tang, J. (2000) Biochemistry 39, 12450-12456) using a quenched fluorogenic substrate containing the Swedish mutation MCA-[…](DNP)-CONH2 (Substrate V, Calbiochem). Proteins were extracted in 20 mM MES/1% Triton X100 plus protease inhibitor cocktail by incubation on ice for 30 minutes. The assay was carried out in black 96 well plates (ATGC) in a volume of 200 μl reaction buffer (25 mM MES/25 mM Sodium Acetate/25 mM Tris, pH 4.4), containing 25 μl of the preparation plus 15 μM peptide Substrate V. Excitation was performed at 320 nm and the reaction kinetics were monitored by measuring the fluorescence emission at 420 nm on a Fluoroscan Ascent FL plate reader (Thermo LabSystems). Controls included purified recombinant human BACE501 protein (R&D Systems) diluted at 1 μg/well in 200 μl of 0.1 M Na Acetate buffer (pH 4.4), the BACE substrate analog inhibitor III (H-Glu-Val-Asn-Statine-Val-Ala-Glu-Phe-NH2, Calbiochem), or substrate alone, and background fluorescence was subtracted to recorded BACE activitiy. […]

[3] = target: T2, recombinant human BACE protein (Homo sapiens, UniProt P56817); assay: BACE fluorogenic assay with recombinant protein; assay type: biochemical; conditions: recombinant human BACE 1 μg/well, pH4.4; compound 38 at 2, 10 or 20 μM and higher
T2 construct: purchased R&D Systems
T2 sequence (P56817 46-501): as above
Source text: as §1

[4] = system: Aβ 40 and Aβ 42 production in swAPP-HEK293 cells; assay: Secreted Aβ 40 and Aβ 42 ELISA, swAPP-HEK293 cells; assay type: cell-based, human
Source text: Human APP harbouring the “Swedish” mutation (swAPP) is more prone to processing than wtAPP.

[5] = system: constitutively active mutant Rac1-Val12 (RACV12); assay: Transient expression luciferase reporter assays in NIH3T3 cells cotransfected with RacV12; conditions: c-Jun, NF-KB and cyclin D1 reporter constructs; qualitative
Method: Briefly, 250,000 NIH3T3 cells/well were seeded in 6-well plates and were co-transfected 24 h later with plasmids prK5-RacV12 and reporter constructs using LipofectAMINE Plus (Invitrogen). Compound of interest was added after the incubation with LipofectAmine. 24 h after transfection, cells were starved for an additional 24 h with Dulbecco's modified Eagle medium supplemented with 0.5% FBS together with the appropriate doses of test compounds or the solvent only. Analyses of the cell lysates of the transiently transfected NIH3T3 cells were performed using the Luciferase Assay System (Promega) and Fluoroscan Ascent FL plate reader (Thermo LabSystems). […] However, consistent and reproducible data were obtained in different assays performed using several plasmid preparations, and we monitored protein concentration for yield in the cell extracts as well as expression of the tagged, exogenous protein by Western blotting.

Rac1 = Rac1 (Homo sapiens, UniProt P63000); assay: Endogenous Rac GTPase activation assay (GST-Pak-PBD pull-down of GTP-Rac1) in U87-MG cells; conditions: qualitative
Method: U87-MG cells were grown in a 150-mm-diameter dish until they reached 80% confluency. The cells were then treated with the test compounds or the solvent only. Cells were then lyzed in a buffer containing 0.5% triton, 10 mM Tris pH7.5, mM KCl, 120 mM NaCl and 1.8 mM CaCl2. Lysates were clarified, the protein concentrations were normalized, and the GTP-bound Rac1 in the lysates were measured using the Rac Activation Assay Biochem kit (Cytoskeleton) as per manufacturer's recommendations.
We used a GST-fusion protein containing the p21-binding domain (PBD) of human p21-activated kinase 1 (Pak1) to affinity precipitate endogenous active Rac1 (GTP-Rac1) from cell lysates to monitor the activation of the small GTPase Rac1.

γ-secretase [6] = assay: γ-Secretase assay, de novo Aβ generation from membranes of compound-treated cells; assay type: cell-based; conditions: cells incubated with compound for 16 hours
Method: We implemented a an assay allowing de novo Aβ generation in vitro, using cell membranes as the source of γ-secretase. Preparation of solubilized γ-secretase fractions was performed essentially as described previously (Li, Y. M., Lai, M. T., Xu, M., Huang, Q., DiMuzio-Mower, J., Sardana, M. K., Shi, X. P., Yin, K. C., Shafer, J. A., and Gardell, S. J. (2000) Proc. Natl. Acad. Sci. U.S.A. 97, 6138-6143) with the above modifications. All incubations were performed in the presence of Complete Protease Inhibitor Cocktail. Confluent plates swAPP-HEK293 cells were lysed in 1 ml of ice-cold CelLytic-M (Sigma) and incubated 15 minutes at 4° C. on a shaker. Cell debris and nuclei were removed by centrifugation at 1000×g for 15 min at 4° C. […] Solubilized γ-secretase activity was induced at 37° C. for 2 h with or without the indicated treatments and Aβ 40 generated de novo was quantified by ELISA. […]
To test this hypothesis, we used an established γ-secretase assay allowing de novo Aβ generation in vitro, using cell membranes as the source of γ-secretase. Solubilized γ-secretase fractions are activated in a γ-secretase buffer (see experimental procedures) and activity is monitored following either the cleavage of an internally quenched fluorogenic γ-secretase substrate, or endogenous C99 itself. […] C99 cleavage by γ-secretase was measured by de novo Aβ 40 generation. […]

[7] = system: intracellular Aβ 40 and Aβ 42 in swAPP-HEK293 cells; assay: Intracellular (cell-associated) Aβ 40 and Aβ 42 ELISA, swAPP-HEK293 cells; assay type: cell-based, human; conditions: qualitative
[8] = system: Aβ 40 production in SH-SY5Y cells; conditions: qualitative
Method: Cells were treated 48 hours after plating in 10 cm plates with various concentrations of the indicated molecules, or DMSO as the vehicle for 16 hours. To do so, medium was replaced with 5 ml of new medium in which treatments were performed. Total DMSO dilution was 1/1000 in all cases. Cells were allowed to secrete in 5 ml medium for 7 hours in the presence of 1 μM phosphoramidon.
Stably transfected swAPP-HEK293 cells were incubated for 7 hours in the presence of phosphoramidon (1 μM) (Sigma). Media and cell lysates were collected as above, centrifuged, normalized to total protein and assayed for Aβ 40 and Aβ 42 by sandwich ELISA according to the manufacturer's instructions (Biosource International). For Aβ 42 detection, samples were concentrated on YM3 Microcon columns (Millipore). […] Right cortices were homogenized for 3 h at room temperature in 5M Guanidine-Hcl, 50 mM Tris-Hcl, pH8 with a protease inhibitor mixture (Roche Diagnostics). Tissue homogenates were diluted 1:1 (v/v) in BSAT-DPBS buffer (Dulbecco's phosphate buffered saline with 5% BSA and 0.03% Tween-20), pH 7.4, and were centrifuged at 20,000 g for 20 min at 4° C. Supernatants were diluted 1:1 (v/v) in ELISA kit sample buffer, normalized to total protein and assayed for Aβ 40 and Aβ 42 by sandwich ELISA according to the manufacturer's instructions. […]

[9] = system: APP processing (α-secretase pathway, CTFs) in swAPP-HEK293 cells; assay: Western blot of APP, sAPPα, C83 and C99 in swAPP-HEK293 cells; conditions: swAPP-HEK293, 16 hours
Method: swAPP-HEK293 cells were scraped and lysed in CelLytic-M (Sigma). Protein concentrations were determined by the Bradford procedure. Equal quantity of proteins were separated on a 10% SDS-PAGE gel and transferred to Hybond-C (Amersham Biosciences) membranes. After transfer, membranes were blocked with 5% nonfat milk and incubated overnight with the primary antibody anti-APP antibody at 1/1000 (Serotec), allowing the detection of both APP and C83-C99 CTFs under specific separation and exposure conditions. For sAPPα detection, cells were allowed to secrete for 7 h. Media were collected, centrifuged and then equal amount of secretate were loaded on 10% SDS-PAGE and Western blotted with 6E10 monoclonal antibody (1/1000).

RhoA = RhoA (Homo sapiens, UniProt P61586); conditions: Gao et al. 2004, Picard et al., submitted, cited from earlier work
RhoA, sequence (P61586 whole entry, species assumed): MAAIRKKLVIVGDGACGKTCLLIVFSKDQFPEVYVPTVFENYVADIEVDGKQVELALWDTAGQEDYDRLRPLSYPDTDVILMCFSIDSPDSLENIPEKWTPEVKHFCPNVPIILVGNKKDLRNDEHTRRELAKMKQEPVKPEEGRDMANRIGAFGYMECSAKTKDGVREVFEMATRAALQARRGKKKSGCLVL

Q: With `C[C@H](NC(=O)Cc1cc(F)cc(F)c1)C(=O)N[C@H](C(=O)OC(C)(C)C)c1ccccc1` [DAPT, N—[N-(3,5-Difluorophenacetyl-L-alanyl)]-S-phenylglycine t-Butyl Ester, reference compound] as the compound, how does the “Aβ production (de novo Aβ 40 generation)” value (γ-secretase [1]) read?
A: Its value is “completely inhibited”.

Q: What about the “Notch cleavage (NICD by Western blot)” value [2] of the same compound?
A: Its value is “potently inhibited”.

Q: With “H-Glu-Val-Asn-Statine-Val-Ala-Glu-Phe-NH2 [BACE Inhibitor III, reference compound]” as the compound, how does the “cellular BACE activity (fluorescence)” value (BACE1) read?
A: Its value is “inhibited”.

Q: What about the “BACE activity (cleavage of fluorogenic Substrate V)” value [3] of the same compound?
A: Its value is “abolished the cleavage”.

Q: For `CN1CCN(Cc2cc(=O)c(OCCCCCOc3ncnc4ccccc34)co2)CC1` (racemic) [compound 53, 5-(5-(Quinazolin-4-yloxy)pentyloxy)-2-((4-methylpiperazin-1-yl)methyl)-4H-pyran-4-one], which “secreted Aβ 40 and Aβ 42” value ([4]; swAPP-HEK293, 18 h, 20, 10 or 2 μM, qualitative) is on record?
A: Its value is “strictly inactive”.

Q: And the “luciferase activity from all 3 reporter constructs” value [5]?
A: The value was “did not change luciferase activity”.

Q: What about the Rac1 activation (Rac1) of the same compound?
A: The Rac1 activation was “totally unable to inhibit Rac1 activation”.

Q: And the “de novo Aβ production from C99 (γ-secretase activity)” value (γ-secretase [6])?
A: The value was “did not affect γ-secretase activity”.

Q: What about the “Aβ 40 and Aβ 42 intracellular levels” value ([7]; swAPP-HEK293 cell lysates, normalized to cellular protein) of the same compound?
A: Its value is “strictly inactive”.

Q: And the “reducing Aβ levels” value [8]?
A: Its value is “strictly inactive”.

Q: With `CCN(CC)CCCC(C)Nc1nc(C)cc(Nc2ccc3nc(C)cc(N)c3c2)n1` (racemic) [compound 49] as the compound, how does the pIC50 ([4]; Homo sapiens, read-out: IC50, secreted Aβ 40) read?
A: Its pIC50 is 4.31.

Q: What about the inhibition at 50 µM ([4]; Homo sapiens, read-out: inhibition of released Aβ 42) of the same compound?
A: Its inhibition at 50 µM is 58%.

Q: What about the “secreted Aβ 40 levels” value ([4]; swAPP-HEK293, various concentrations, qualitative) of the same compound?
A: The value was “dose-dependently reduced secreted Aβ 40 levels”.

Q: What about the “extracellular levels of Aβ 42” value ([4]; swAPP-HEK293, qualitative) of the same compound?
A: Its value is “dose-dependently decreased”.

Q: And the “APP expression and maturation, α-secretase pathway (APP, C83, sAPPα)” value [9]?
A: The value was “no alterations”.

Q: And the “activity on / interaction with RhoA” value (RhoA)?
A: The value was “does not interact with cdc42 and RhoA”.

Q: And the “activity on / interaction with RhoA” value (RhoA; listed as NSC23766)?
A: The value was “not to affect the activity of Cdc42 or RhoA”.

Q: And the “Notch cleavage (NICD by Western blot)” value [2]?
A: Its value is “no alterations”.

Q: And the “intracellular Aβ 40” value ([7]; swAPP-HEK293)?
A: The value was “no intracellular accumulation of Aβ 40”.

Q: What about the “intracellular levels of Aβ 42” value ([7]; swAPP-HEK293) of the same compound?
A: Its value is “dose-dependently decreased”.

Source: patent publication US20090093471A1, “Methods of Treating Nervous Disorders” (priority 2005, published 2009)
